{"source": "paper PMC10947197", "about": "“Acid‐Resistant BODIPY Amino Acids for Peptide‐Based Fluorescence Imaging of GPR54 Receptors in Pancreatic Islets” (Angewandte Chemie (International Ed. in English), 2023)", "test": "Fluorogenic behavior in phosphatidylcholine liposome suspensions", "assay_type": "physicochemical", "settings": "PBS vs phosphatidylcholine liposome suspensions; λexc 450 nm, λem 510 nm", "description": "Figure 1 a) Chemical structure of the Fmoc‐protected Trp‐BODIPY PLUS amino acid for general peptide synthesis. b) Fluorescence emission spectra of Trp‐BODIPY PLUS (25 μM) in phosphate buffer saline (PBS) suspensions with increasing content of phosphatidylcholine liposomes. λ exc: 450 nm. Inset) UV‐irradiated pictograms of Trp‐BODIPY PLUS in hydrophilic (bottom) and hydrophobic (top) environments. c) Peptide sequences synthesized with Trp‐BODIPY and Trp‐BODIPY PLUS, their biological targets, solid supports, protected amino acids and purities after SPPS. RA: Rink Amide, TG: TentaGel, CTC: chlorotrityl, PS: polystyrene,^[a] not determined due to degradation of BODIPY. d) Synthetic scheme and structures of KP‐10 analogues with Trp‐BODIPY PLUS instead of the native Trp (peptide 7) or at the N‐terminal end (peptide 8).\nBODIPY PLUS (10 µM) in phosph ate buffer salin e (PBS, white bars) an d phosp hat idy lcho lin e li posom e susp ensi ons (gr ey bars). λ exc: 45 0 nm; λem: 51 0 nm.\nV alues pr es ent e d as m ea ns ±S E M ( n= 3) .\nTr p-BODIPY P LU S (-20 °C, solid)\nTr p-BODIPY P LU S (-20 °C, DMSO)\nS u p p l emen t ary F i gu re 6 . HP LC tr ac es of T r p-B O DI P Y P LUS aft er 5 m ont hs st or age in t he f r eez er as po wder ( t op) and as 5 mM DMSO s olut i ons ( bot t om ). […]\nSp ectro sco p y mea su rem en ts. […]"}
{"smiles": "CC1=CC(C)=[N+]2C1=C(c1cccc(-c3[nH]c4ccccc4c3C[C@H](NC(=O)OCC3c4ccccc4-c4ccccc43)C(=O)O)c1)c1c(C)cc(C)n1[B-]2(C#N)C#N", "note": "[Trp-BODIPY PLUS]", "values": [{"measurement": "Fluorogenic behavior (in words)", "value": "strong fluorogenic behavior"}]}
